# Columns and labels:
# [1] = tested on: megakaryocytic and erythroleukemia cell lines; test: Comparison of sensitivity of megakaryocytic and erythroleukemia cell lines; settings: K562 and HEL compared to MEG-01 and SET-2 (BCR-Abl or JAK2V617F)
# GRANTA 519 = test: Cellular proliferation assay (CellTiter-Glo); settings: Homo sapiens
# Experimental: (§1) All suspension cells were plated (96-well) in triplicate at 5,000-30,000 cells per well for testing (n=3). Viable cell number was estimated after 3, 7 and 10 days by counting viable cells from one vehicle well, generating a cell dilution series, transferring 20 ml per well in duplicate to a 384-well plate, and performing a linear regression to CellTiter-Glo (Promega) response (SPECTRAmax M3, Molecular Devices). Cells from all wells were also fourfold diluted in media and transferred in duplicate for CellTiter-Glo measurement. On days 3 and 7, an equal volume for all wells was split-back with fresh media and compound, such that the resulting cell density for the vehicle well matched the initial seeding density. For days 7 and 10, estimated cell number represents the split-adjusted theoretical cell number. HCT116 were plated (96-well) in triplicate at 250 cells per well. Cells were incubated in the presence of vehicle, 1 μM paclitaxel, or compound. On day 7, CellTiter-Blue (Promega) response was measured and values were normalized to vehicle (100% growth) and paclitaxel (0% growth). For growth assays with inhibitors, n=3 for each concentration with two independent experiments.
# JeKo-1 = test: Cellular proliferation assay (CellTiter-Glo); settings: Homo sapiens
# Experimental: as §1
# CDK8/19 [2] = target: T1, CDK8/19 (Homo sapiens, UniProt P49336); test: Recombinant kinome-wide selectivity profiling (wildtype-profiler, ProQinase), 294 recombinant kinases; type: biochemical; settings: 600 nM cortistatin A; FIG. 7A
# T1 construct: purchased ProQinase GmbH
# T1 sequence (P49336 whole entry): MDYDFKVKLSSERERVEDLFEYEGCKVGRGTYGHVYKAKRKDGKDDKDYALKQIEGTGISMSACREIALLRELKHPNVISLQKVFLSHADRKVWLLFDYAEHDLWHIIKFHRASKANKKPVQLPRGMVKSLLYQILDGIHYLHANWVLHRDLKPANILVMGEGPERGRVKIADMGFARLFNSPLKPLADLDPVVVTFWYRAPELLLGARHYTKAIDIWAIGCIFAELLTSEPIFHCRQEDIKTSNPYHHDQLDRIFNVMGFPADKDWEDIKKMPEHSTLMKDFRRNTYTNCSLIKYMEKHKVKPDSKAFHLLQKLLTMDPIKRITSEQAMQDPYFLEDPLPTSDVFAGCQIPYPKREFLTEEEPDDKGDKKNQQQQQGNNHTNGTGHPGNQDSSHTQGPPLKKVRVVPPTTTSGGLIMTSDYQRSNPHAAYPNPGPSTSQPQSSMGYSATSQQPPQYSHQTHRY
# T1 sequence (P24863 whole entry partner): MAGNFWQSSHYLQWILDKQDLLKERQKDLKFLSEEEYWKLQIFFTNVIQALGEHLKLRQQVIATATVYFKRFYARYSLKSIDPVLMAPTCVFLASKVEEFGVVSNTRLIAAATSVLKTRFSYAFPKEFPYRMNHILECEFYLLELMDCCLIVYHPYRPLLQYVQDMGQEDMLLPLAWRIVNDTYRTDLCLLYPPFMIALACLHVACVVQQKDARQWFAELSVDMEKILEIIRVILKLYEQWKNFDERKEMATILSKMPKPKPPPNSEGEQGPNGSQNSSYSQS
# Excerpt: Recombinant kinome-wide selectivity profiling.
# MKN-45 = test: Soft agar growth assay (Alamar Blue); settings: Gastric cancer, MET amplification, 100 nM cortistatin A
# Experimental: (§2) For the 62 cell lines 96 well suspension cell culture plates were prepared. 100 μL of the soft agar bottom layer (0.6% final concentration in complete medium) was poured and left to solidify. 50 μL of the soft agar top layer (0.4% final concentration) containing the corresponding cells and cell number were then added on top, solidified and incubated at 37° C., 10% CO2. After the soft agar had solidified, the test items were added at indicated final concentrations into the inner wells of the plate. Subsequently, the assay was incubated in cell culture incubators for 8 to 14 days. Finally, the assay was developed using Alamar Blue and upon 1-5 h of incubation at 37° C. fluorescence intensity was determined (excitation: 560 nm; emission: 590 nm). As low control, cells were treated with 1E-05M Staurosporine (6fold values). As high control, cells were treated with 0.1% DMSO (solvent control, 6 fold values).
# (§3) Raw data were converted into percent soft agar growth relative to high controls (solvent 0.1% DMSO) and low controls (1E-05M Staurosporine), which were set to 100% and 0%, respectively.
# [3] = tested on: RUNX1 target gene signatures; test: Gene expression and gene set enrichment analysis (GSEA) in MOLM-14 cells; type: cell-based, human; settings: 3 h 25 nM CA
# Excerpt: Kasumi-1 AML cells contain the RUNX1-RUNX1T1 fusion. A gene set was obtained that measured the genes in Kasumi-1 cells that increase in expression upon knockdown of RUNX1-RUNX1T1 (Ben-Ami, O. et al. Cell Reports 4, 1131-1143 (2013)). Using gene set enrichment analysis (Subramanian, A. et. al. Proc. Natl Acad. Sci. USA 102, 15545-15550 (2005)), this gene set, together with the Broad Molecular Signatures database (C2) was compared to genes differentially expressed in MOLM-14 cells upon treatment with 25 nM cortistatin A for 3 hrs (FIG. 2).
# Leukemia cells were plated (12-well) in triplicate at 500,000-800,000 cells per ml and incubated in the presence of vehicle (0.1% DMSO) or CA (25 nM 3 h for K562, MOLM-14 and MV4;11; 10 nM 24 h for MOLM-14; 25 nM 4 h for SET-2, n=3 for each cell line). Cells were then washed twice with cold PBS, and snap frozen. RNA was isolated (RNeasy Plus Microkit, Qiagen or TRIzol, Life Technologies), processed, and, for K562, MOLM-14 and MV4;11, hybridized to the Human U133 Plus 2.0 microarray (Affymetrix). Microarrays were processed with Bioconductor packages affyQCReport for quality control and affy for background correction, summarization, and normalization using rma. Probe sets present in at least 1 sample (based on affy mas5call) and for which the interquartile range was >log2(1.2) were retained for further analysis. The limma Bioconductor package was used for differential expression analysis of CA-treated versus DMSO control samples (Benjamini-Hochberg adjusted P<0.05). SET-2 and HCT 116 gene expression was measured by RNA-seq. SET-2 RNA-seq libraries were prepared and processed using the Ion Torrent workflow. Reads were aligned in two passes, first with rnaStar (v.2.3.0e) then with BWA (v.0.7.5a) for remaining unmapped reads, both using default parameters. Mapped reads were merged and counted using HTSeq (v.0.5.3p3) with -s yes -m intersection-strict. The Bioconductor package DESeq was used for DE analysis (FDR<0.05 and twofold change) and normalization. HCT116 cells were grown to approximately 80% confluence and were treated with either 100 nM CA or DMSO for 3 h (n=3). Cells were then washed twice with cold PBS and scraped into TRIzol reagent (Life Technologies). After collecting the RNA, it was further purified using an RNeasy mini kit (Qiagen) with an on-column DNase I digestion. Libraries for Illumina sequencing were generated via the Illumina TruSEQ stranded mRNA prep kit. Samples were run in a single lane on an Illumina HiSEQ 2000 sequencer with a single read flow cell using 1×50-bp reads and a 6-cycle index read. Reads were mapped to the hgl9 reference genome using Tophat2 v.2.0.6 with custom settings including the setting of—library-type fr—firstrand to appropriately account for the stranded nature of the protocol. HTSeq v.0.6.1 was used to obtain read counts over annotated genes and differentially expressed genes were called by DESeq v.1.10.1 with a padj value of less than 0.01. Counts were normalized for GSEA using the limma voom function. Expression data for the I-BET151 comparison were downloaded from ArrayExpress (https://www.ebi.ac.uk/arrayexpress, accession E-MTAB-774) and processed files used as is. Gene lists were submitted to the DAVID web server (http://david.abcc.ncifcrf.gov) for functional annotation. GSEA version 2.09 was carried out using signal-to-noise on natural values as the metric. Signatures included curated gene sets (C2, v.3) downloaded from the Broad's MSigDB as well as signatures curated from in-house and published data sets.
# NCI-N87 = test: Soft agar growth assay (Alamar Blue); settings: Gastric cancer, HER2 overexpression, 100 nM cortistatin A
# Experimental: as §2, §3
# MOLM-16 = test: Cellular proliferation assay (CellTiter-Glo); settings: Homo sapiens
# Experimental: (§4) All suspension cells were plated (96-well) in triplicate at 5,000-30,000 cells per well for testing (n=3). Viable cell number was estimated after 3, 7 and 10 days by counting viable cells from one vehicle well, generating a cell dilution series, transferring 20 ml per well in duplicate to a 384-well plate, and performing a linear regression to CellTiter-Glo (Promega) response (SPECTRAmax M3, Molecular Devices). Cells from all wells were also fourfold diluted in media and transferred in duplicate for CellTiter-Glo measurement. On days 3 and 7, an equal volume for all wells was split-back with fresh media and compound, such that the resulting cell density for the vehicle well matched the initial seeding density. For days 7 and 10, estimated cell number represents the split-adjusted theoretical cell number. […] For growth assays with inhibitors, n=3 for each concentration with two independent experiments.
# OCI-LY1 = test: Cellular proliferation assay (CellTiter-Glo); settings: Homo sapiens
# Experimental: as §4
# [4] = tested on: megakaryocytic cell lines; test: Cellular proliferation assay, megakaryocytic cell lines; settings: Homo sapiens
# Experimental: as §4
# CDK8/19 [5] = settings: 1,000 nM cortistatin A; FIG. 7B
# Experimental: Native kinome profiling was performed with MOLM-14 cell lysate according to the KiNativ Method by ActivX Biosciences. For each peptide quantified, the change in mass spectrometry signal for the treated samples relative to the signal for the control samples was expressed as percentage inhibition.
# MV4;11 = test: Cellular proliferation assay (CellTiter-Glo); settings: Homo sapiens
# Experimental: as §4
# HEL = test: Cellular proliferation assay (CellTiter-Glo); settings: Homo sapiens
# Experimental: as §4
# ME-1 = test: Cellular proliferation assay (CellTiter-Glo); settings: Homo sapiens, ME-1, 240 h
# Experimental: as §4
# Jurkat = test: Cellular proliferation assay (CellTiter-Glo); settings: Homo sapiens
# Experimental: as §4
# MCF-7 = test: Soft agar growth assay (Alamar Blue); settings: Breast cancer, ER-alpha positive, 100 nM cortistatin A
# Experimental: as §2, §3
# Caki-2 = test: Soft agar growth assay (Alamar Blue); settings: clear cell renal cell carcinoma, Loss of function VHL mutation (VHL negative), 100 nM cortistatin A
# Experimental: as §2, §3
compound,measurement,setting,value
"CN(C)[C@H]1C[C@@]23CC[C@@]4(O2)C(=CC[C@]2(C)[C@@H](c5ccc6ccncc6c5)CC[C@H]24)C=C3[C@@H](O)[C@@H]1O [Cortistatin A, cortistatin A]",difference in sensitivity between megakaryocytic and erythroleukemia cell lines with the same mutations,[1],more than 100 fold
same,GI50,GRANTA 519,400 nM
same,GI50,JeKo-1,< 1 nM
same,"kinase selectivity (kinase activity percent remaining, 294 recombinant kinases)",CDK8/19 [2],selectively inhibits CDK8/19
same,% growth rel. to vehicle,MKN-45,27%
same,NES,[3]; signature: Downregulated by RUNX1-RUNX1T1 in CD34+ cord blood cells,2.50
same,NES,[3]; signature: Downregulated by RUNX1 knockdown in Kasumi-1 cells,2.21
same,NES,[3]; signature: Downregulated by RUNX1 knowndown in Jurkat cells,2.00
same,NES,[3]; signature: Upregulated by C/EBPα in Burkitt lymphoma cells,2.56
same,NES,[3]; signature: Upregulated by C/EBPα in K562 cells,2.22
same,NES,[3]; signature: Upregulated by C/EBPα in KCL22 cells,2.22
same,NES,[3]; signature: Upregulated by RUNX1-RUNX1T1 knockdown in Kasumi-1 cells,2.78
same,% growth rel. to vehicle,NCI-N87,26%
same,GI50,MOLM-16; MOLM16,< 1 nM
same,GI50,"MOLM-16; MOLM16, 240 h",≤ 1 nM
same,GI50,OCI-LY1,37 nM
same,GI50,[4],< 10 nM
same,kinase selectivity (native kinase % inhibition),CDK8/19 [5],selectively inhibits CDK8/19
same,GI50,MV4;11; MV4-11,6 nM
same,GI50,"MV4;11; MV4-11, 240 h",6 nM
same,GI50,HEL,> 1000 nM
same,GI50,HEL; 240 h,> 1000 nM
same,GI50,ME-1,1 nM
same,GI50,Jurkat,155 nM
same,% growth rel. to vehicle,MCF-7,49%
same,% growth rel. to vehicle,Caki-2,18%

# Source: patent publication US20180135134A1, “TARGETED SELECTION OF PATIENTS FOR TREATMENT WITH CORTISTATIN DERIVATIVES” (President and Fellows of Harvard College, priority 2015, published 2018)
